Results published in patent publication US20070066516A1, “Compounds comprising cyclized somatostatin receptor binding peptides” (priority 2005, published 2007).
Where a SMILES comes first, the peptide text is derived from it. Side-chain parts run from the residue outwards. [ ]: non-standard residue; d: D form. The star is where a group is joined. X1 = CC(C(=O)*)N1CCN(CC(=O)O)CCN(CC(=O)O)CCN(CC(=O)O)CC1; Tpi = O=C(O)[C@@H]1Cc2c([nH]c3ccccc23)CN1; Dip = N[C@H](C(=O)O)C(c1ccccc1)c1ccccc1; Phe(4-F) = N[C@@H](Cc1ccc(F)cc1)C(=O)O; 1Nal = N[C@@H](Cc1cccc2ccccc12)C(=O)O; 2Nal = N[C@@H](Cc1ccc2ccccc2c1)C(=O)O; Ala(cPr) = N[C@@H](CC1CC1)C(=O)O; NMeF = CN[C@@H](Cc1ccccc1)C(=O)O; 4Pal = N[C@@H](Cc1ccncc1)C(=O)O; Thz = O=C(O)[C@@H]1CSCN1; Dap = NC[C@H](N)C(=O)O

B1: P2279 (peptide)
peptide: cyclo([2Nal][dW]KTM[NMeF])
SMILES: CSCC[C@@H]1NC(=O)[C@H]([C@@H](C)O)NC(=O)[C@H](CCCCN)NC(=O)[C@@H](Cc2c[nH]c3ccccc23)NC(=O)[C@H](Cc2ccc3ccccc3c2)NC(=O)[C@H](Cc2ccccc2)N(C)C1=O
notes: Cyclic hexapeptide; also called cyclo[2Nal-Dtrp-Lys-Thr-Met-(N-Me)Phe]
B2: P2278 (peptide)
peptide: cyclo([1Nal][dW]KTM[NMeF])
modifications: also: tested peptides comprised a lanthanide chelation unit, not shown
notes: also called cyclo[(1)Nal-DTrp-Lys-Thr-Met-(NMe)Phe]
B3: P2329 (peptide)
peptide: cyclo([1Nal][dW]KVM[NMeF])
SMILES: CSCC[C@@H]1NC(=O)[C@H](C(C)C)NC(=O)[C@H](CCCCN)NC(=O)[C@@H](Cc2c[nH]c3ccccc23)NC(=O)[C@H](Cc2cccc3ccccc23)NC(=O)[C@H](Cc2ccccc2)N(C)C1=O
notes: Cyclic hexapeptide; also called cyclo[1Nal-DTrp-Lys-Val-Met-(N-Me)Phe]
B4: P2281 (peptide)
peptide: cyclo([4Pal][dW]KTM[NMeF])
SMILES: CSCC[C@@H]1NC(=O)[C@H]([C@@H](C)O)NC(=O)[C@H](CCCCN)NC(=O)[C@@H](Cc2c[nH]c3ccccc23)NC(=O)[C@H](Cc2ccncc2)NC(=O)[C@H](Cc2ccccc2)N(C)C1=O
notes: Cyclic hexapeptide; also called cyclo[(4)Pal-DTrp-Lys-Thr-Met-(NMe)Phe]
B5: P2265 (peptide)
peptide: cyclo(Y[dW]KTM[NMeF])
SMILES: CSCC[C@@H]1NC(=O)[C@H]([C@@H](C)O)NC(=O)[C@H](CCCCN)NC(=O)[C@@H](Cc2c[nH]c3ccccc23)NC(=O)[C@H](Cc2ccc(O)cc2)NC(=O)[C@H](Cc2ccccc2)N(C)C1=O
notes: Cyclic hexapeptide; also called cyclo[Tyr-DTrp-Lys-Thr-Met-(NMe)Phe]
B6: P2292 (peptide)
peptide: cyclo([Phe(4-F)][dW]KTM[NMeF])
SMILES: CSCC[C@@H]1NC(=O)[C@H]([C@@H](C)O)NC(=O)[C@H](CCCCN)NC(=O)[C@@H](Cc2c[nH]c3ccccc23)NC(=O)[C@H](Cc2ccc(F)cc2)NC(=O)[C@H](Cc2ccccc2)N(C)C1=O
notes: Cyclic hexapeptide; also called cyclo[Phe(4-F)-DTrp-Lys-Thr-Met-(N-Me)Phe]
B7: P2326 (peptide)
peptide: cyclo([Dip][dW]KTM[NMeF])
SMILES: CSCC[C@@H]1NC(=O)[C@H]([C@@H](C)O)NC(=O)[C@H](CCCCN)NC(=O)[C@@H](Cc2c[nH]c3ccccc23)NC(=O)[C@H](C(c2ccccc2)c2ccccc2)NC(=O)[C@H](Cc2ccccc2)N(C)C1=O
notes: Cyclic hexapeptide; also called cyclo[DiphenylAla-DTrp-Lys-Thr-Met-(N-Me)Phe]
B8: P2266 (peptide)
peptide: cyclo(Y[dW]KVM[NMeF])
SMILES: CSCC[C@@H]1NC(=O)[C@H](C(C)C)NC(=O)[C@H](CCCCN)NC(=O)[C@@H](Cc2c[nH]c3ccccc23)NC(=O)[C@H](Cc2ccc(O)cc2)NC(=O)[C@H](Cc2ccccc2)N(C)C1=O
notes: Cyclic hexapeptide; also called cyclo[Tyr-DTrp-Lys-Val-Met-(NMe)Phe]
B9: P2297 (peptide)
peptide: cyclo([Thz][dW]KTMF)
SMILES: CSCC[C@@H]1NC(=O)[C@H]([C@@H](C)O)NC(=O)[C@H](CCCCN)NC(=O)[C@@H](Cc2c[nH]c3ccccc23)NC(=O)[C@@H]2CSCN2C(=O)[C@H](Cc2ccccc2)NC1=O
notes: Cyclic hexapeptide; also called cyclo[ThioPro-DTrp-Lys-Thr-Met-Phe]

Assays:
[1] = biological target: SSTR5 (Homo sapiens, UniProt P35346); experiment: Radioligand binding assay on membranes of CHO-K1 cells expressing SSTR5; conditions: for IC50: membranes from CHO-K1 cells stably expressing cloned somatostatin receptor 5; for Ratio 2/5 in %: ratio of IC50 SSTR2 / IC50 SSTR5 in %
Procedure: (§1) Radiolabeling binding assays were carried out as described in the prior art like, e.g. in Gazal S. et al (2002) J. Med. Chem. 45: 1665-1671. The radioligand binding assays were carried out on membranes prepared from CHO-K1 cells stably expressing individually cloned somatostatin receptors 2 or 5 (SSTR2 or SSTR5). Cells were grown for 2 days for almost confluence and were washed and scraped into 50 mM ice-cold Tris-HCl, pH 7.8, containing 1 mM EGTA, 5 mM MgCl2, […], 0.1 mM PMSF, and 0.5 mg/mL aprotinin (buffer A) and were centrifuged at 10,000 rpm for 10 min at 4° C. (in Sorvall RC 26 Plus ultracentrifuge, rotor SS-34). The pellet was resuspended in buffer A and homogenized with a Polytron PT 1200 homogenizer (Kinematica AG, Switzerland) (setting 2, 3 strokes 10 s each). The homogenate was then centrifuged at 20 000 rpm for 20 min at 4° C. The pellet was resuspended in buffer A and homogenized using the Polytron homogenizer (setting 2, 3 strokes 5 s each). The protein content was determined by Bradford, and the membrane preparation was diluted in buffer A containing 1 mg/mL bovine serum albumin (BSA) to a final 0.2 or 0.4 mg/mL membrane protein (depending on the specific somatostatin receptor used).
(§2) The radioligand binding assay was performed in 96 well microtiter plates (Maxisorp plates, Nunc, Denmark). Cell membranes ([…] protein) were incubated with the various cyclized peptides indicated in Table 1 & 2, which comprised a lanthanide chelation unit, in a final volume of 250 μL, for 45 min. at room temperature in the presence or absence of competing peptides. Nonspecific binding was defined as the radioactivity remaining bound in the presence of […] somatostatin. At the end of the binding, reaction free radioligand was separated from bound Ligand by rapid filtration through UniFilter GF/C plates preincubated in a solution of 5 g/L polyethyleneimine and 1 g/L BSA. The filtration was performed in Filter-Mate Cell Harvester (Packard Instrument Company, U.S.A.). After filtration, the filters were washed several times with cold buffer A containing 1 mg/mL BSA and allowed to dry overnight at room temperature. Then, bound radioactivity was counted. The binding assays were performed in triplicate wells. Data from radioligand binding were used to generate inhibition curves, and IC50 values were determined for each of the tested peptides. The saturation binding data were analyzed by the method of Scatchard, and IC50 values are expressed as mean±SEM (standard error of the mean).

[2] = biological target: SSTR2 (Homo sapiens, UniProt P30874); experiment: Radioligand binding assay on membranes of CHO-K1 cells expressing SSTR2; conditions: membranes from CHO-K1 cells stably expressing cloned somatostatin receptor 2
Procedure: as §1, §2

[3] = biological target: T1, somatostatin receptor 5 (UniProt P35346 1-364, limits assumed); experiment: ratio of IC50 on SSTR2 to IC50 on SSTR5 (reference SSTR2), radioligand competition binding on CHO-K1 membranes
T1 construct: whole, on cells; Assayed as membrane preparation of CHO-K1 cells stably expressing the cloned receptor; also called SSTR5; somatostatin receptor subtype 5
T1 sequence (P35346 whole entry): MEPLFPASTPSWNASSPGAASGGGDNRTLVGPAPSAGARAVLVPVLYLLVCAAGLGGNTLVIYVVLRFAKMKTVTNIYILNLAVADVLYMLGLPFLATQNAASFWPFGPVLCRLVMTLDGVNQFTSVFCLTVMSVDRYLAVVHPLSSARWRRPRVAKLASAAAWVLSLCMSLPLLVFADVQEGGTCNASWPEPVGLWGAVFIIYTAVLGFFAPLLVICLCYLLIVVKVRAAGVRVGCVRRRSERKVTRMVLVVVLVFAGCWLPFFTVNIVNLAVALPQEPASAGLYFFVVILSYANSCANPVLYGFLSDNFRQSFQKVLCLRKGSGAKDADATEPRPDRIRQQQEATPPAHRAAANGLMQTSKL

Sequence of SSTR5 (P35346 whole entry): as above
Sequence of SSTR2 (P30874 whole entry): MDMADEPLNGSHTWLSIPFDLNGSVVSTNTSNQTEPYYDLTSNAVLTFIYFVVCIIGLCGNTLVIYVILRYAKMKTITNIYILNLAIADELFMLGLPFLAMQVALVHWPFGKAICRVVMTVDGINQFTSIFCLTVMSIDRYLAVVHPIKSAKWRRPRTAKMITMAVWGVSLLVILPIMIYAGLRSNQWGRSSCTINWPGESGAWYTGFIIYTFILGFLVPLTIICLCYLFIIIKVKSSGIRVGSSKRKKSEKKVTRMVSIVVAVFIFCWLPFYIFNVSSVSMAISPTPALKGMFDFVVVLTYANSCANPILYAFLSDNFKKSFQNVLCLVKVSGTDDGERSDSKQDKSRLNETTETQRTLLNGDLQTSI

Molecule | IC50 [1] [nM] | Ratio 2/5 in % [1] [%] | IC50 [2] [nM] | Ratio 2/5 in % [3] [%]
C[C@@H](O)[C@@H]1NC(=O)[C@H](CCCCN)NC(=O)[C@@H](Cc2c[nH]c3ccccc23)NC(=O)[C@H](Cc2ccc(O)cc2)NC(=O)[C@H](CCS)N(C)C(=O)[C@H](Cc2ccccc2)NC1=O [P1839, cyclo[Tyr-DTrp-Lys-Thr-Phe-(NMe)hCys], reference compound] | 22 | 0.15 | 0.032 | –
CSCC[C@@H]1NC(=O)[C@H]([C@@H](C)O)NC(=O)[C@H](CCCCN)NC(=O)[C@@H](Cc2c[nH]c3ccccc23)NC(=O)[C@H](Cc2ccc(O)cc2)NC(=O)[C@H](Cc2ccccc2)N(C)C1=O [P2265, cyclo[Tyr-DTrp-Lys-Thr-Met-(NMe)Phe]] (cyclo(Y[dW]KTM[NMeF])) | 11.6 | 1.2 | 0.139 | –
CSCC[C@@H]1NC(=O)[C@H](C(C)C)NC(=O)[C@H](CCCCN)NC(=O)[C@@H](Cc2c[nH]c3ccccc23)NC(=O)[C@H](Cc2ccc(O)cc2)NC(=O)[C@H](Cc2ccccc2)N(C)C1=O [P2266, cyclo[Tyr-DTrp-Lys-Val-Met-(NMe)Phe]] (cyclo(Y[dW]KVM[NMeF])) | 8.12 | 3.2 | 0.256 | –
CSCC[C@@H]1NC(=O)[C@H](CN)NC(=O)[C@H](CCCCN)NC(=O)[C@@H](Cc2c[nH]c3ccccc23)NC(=O)[C@H](Cc2ccc(O)cc2)NC(=O)[C@H](Cc2ccccc2)N(C)C1=O [P2267, cyclo[Tyr-DTrp-Lys-Dpr-Met-(NMe)Phe]] (cyclo(Y[dW]K[Dap]M[NMeF])) | – | 1.9 | – | –
CSCC[C@@H]1NC(=O)[C@H]([C@@H](C)O)NC(=O)[C@H](CCCCN)NC(=O)[C@@H](Cc2c[nH]c3ccccc23)NC(=O)[C@H](Cc2ccc(O)cc2)NC(=O)[C@@H]2Cc3c([nH]c4ccccc34)CN2C1=O [P2274, cyclo[Tyr-DTrp-Lys-Thr-Met-Tpi]] (cyclo(Y[dW]KTM[Tpi])) | – | 6.1 | – | –
CSCC[C@@H]1NC(=O)[C@H]([C@@H](C)O)NC(=O)[C@H](CCCCN)NC(=O)[C@@H](Cc2c[nH]c3ccccc23)NC(=O)[C@H](Cc2cccc3ccccc23)NC(=O)[C@H](Cc2ccccc2)N(C)C1=O [P2278, cyclo[(1)Nal-DTrp-Lys-Thr-Met-(NMe)Phe]] (cyclo([1Nal][dW]KTM[NMeF])) | 1.59 | 27.9 | 0.444 | –
CSCC[C@@H]1NC(=O)[C@H]([C@@H](C)O)NC(=O)[C@H](CCCCN)NC(=O)[C@@H](Cc2c[nH]c3ccccc23)NC(=O)[C@H](Cc2ccc3ccccc3c2)NC(=O)[C@H](Cc2ccccc2)N(C)C1=O [P2279, cyclo[2Nal-Dtrp-Lys-Thr-Met-(N-Me)Phe]] (cyclo([2Nal][dW]KTM[NMeF])) | 15 | 37.2 | 5.58 | –
CSCC[C@@H]1NC(=O)[C@H]([C@@H](C)O)NC(=O)[C@H](CCCCN)NC(=O)[C@@H](Cc2c[nH]c3ccccc23)NC(=O)[C@H](Cc2ccncc2)NC(=O)[C@H](Cc2ccccc2)N(C)C1=O [P2281, cyclo[(4)Pal-DTrp-Lys-Thr-Met-(NMe)Phe]] (cyclo([4Pal][dW]KTM[NMeF])) | 43.3 | 0.36 | 0.154 | –
CSCC[C@@H]1NC(=O)[C@H]([C@@H](C)O)NC(=O)[C@H](CCCCN)NC(=O)[C@@H](Cc2c[nH]c3ccccc23)NC(=O)[C@H](Cc2ccc(F)cc2)NC(=O)[C@H](Cc2ccccc2)N(C)C1=O [P2292, cyclo[Phe(4-F)-DTrp-Lys-Thr-Met-(N-Me)Phe]] (cyclo([Phe(4-F)][dW]KTM[NMeF])) | 7.61 | 2.0 | 0.152 | –
CSCC[C@@H]1NC(=O)[C@H](CC2CC2)NC(=O)[C@H](CCCCN)NC(=O)[C@@H](Cc2c[nH]c3ccccc23)NC(=O)[C@H](Cc2ccc(O)cc2)NC(=O)[C@H](Cc2ccccc2)N(C)C1=O [P2300, cyclo[Tyr-DTrp-Lys-BAla(cyclopropyl)-Met-(N-Me)Phe]] (cyclo([Ala(cPr)]M[NMeF]Y[dW]K)) | – | 0.96 | – | –
CC(C(=O)NCC(=O)NCCCC[C@@H]1NC(=O)[C@H]([C@@H](C)O)NC(=O)[C@H](CCCCN)NC(=O)[C@@H](Cc2c[nH]c3ccccc23)NC(=O)[C@H](Cc2cccc3ccccc23)NC(=O)[C@H](Cc2ccccc2)N(C)C1=O)N1CCN(CC(=O)O)CCN(CC(=O)O)CCN(CC(=O)O)CC1 (stereo partly drawn) [P2323, cyclo[1Nal-DTrp-Lys-Thr-Lys(GlyMeDOTA)-(N-Me)Phe]] (cyclo([1Nal][dW]KTK([Gly-X1])[NMeF])) | – | 399.1 | – | –
B1 | – | – | – | 37.2
B2 | – | – | – | 27.9
B3 | – | – | – | 10.5
B4 | – | – | – | 0.36
B5 | – | – | – | 1.2
B6 | – | – | – | 2
B7 | – | – | – | 0.42
B8 | – | – | – | 3.2
B9 | – | – | – | 37.1
